Assay results: PubChem BioAssay AID330 (DTP/NCI, 2004)
Several values for one entry are separate records, joined by “and”; a condition that tells them apart may be missing. Identical values can stand only once. Toxic doses and inconclusive results are not listed.

Tested on: P388 leukemia ip, CD2F1 mice, survival T/C
Assay: NCI In Vivo Anticancer Drug Screen. Data for tumor model P388 Leukemia (intraperitoneal) in CD2F1 (CDF1) mice
Conditions: endpoint: median survival time, higher = longer survival
Method in brief: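 Mice carrying the transplanted tumor received test compound or vehicle. Survival was recorded in each group, and the value is the treated-group measurement divided by that of the vehicle-treated control group.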

[1] = dose: 6.25 mg/kg/injection, schedule: Q01DX009 (ip), vehicle: saline with Tween-80
[2] = dose: 12.5 mg/kg/injection, schedule: Q01DX009 (ip), vehicle: saline with Tween-80
[3] = dose: 25.0 mg/kg/injection, schedule: Q01DX009 (ip), vehicle: saline with Tween-80
[4] = dose: 50.0 mg/kg/injection, schedule: Q01DX009 (ip), vehicle: saline
[5] = dose: 100.0 mg/kg/injection, schedule: Q01DX009 (ip), vehicle: saline
[6] = dose: 200.0 mg/kg/injection, schedule: Q01DX009 (ip), vehicle: saline
[7] = dose: 50.0 mg/kg/injection, schedule: Q01DX009 (ip), vehicle: saline with Tween-80
[8] = dose: 200.0 mg/kg/injection, schedule: Q01DX009 (ip), vehicle: saline with Tween-80
[9] = dose: 60.0 mg/kg/injection, schedule: Q01DX005 (ip), vehicle: saline with Tween-80
[10] = dose: 120.0 mg/kg/injection, schedule: Q01DX005 (ip), vehicle: saline with Tween-80
[11] = dose: 240.0 mg/kg/injection, schedule: Q01DX005 (ip), vehicle: saline with Tween-80
[12] = dose: 50.0 mg/kg/injection, schedule: Q01DX005 (ip), vehicle: Klucel (hydroxypropylcellulose) (HPC)
[13] = dose: 100.0 mg/kg/injection, schedule: Q01DX005 (ip), vehicle: Klucel (hydroxypropylcellulose) (HPC)
[14] = dose: 200.0 mg/kg/injection, schedule: Q01DX005 (ip), vehicle: Klucel (hydroxypropylcellulose) (HPC)
[15] = dose: 100.0 mg/kg/injection, schedule: Q01DX009 (ip), vehicle: saline with Tween-80
[16] = dose: 50.0 mg/kg/injection, schedule: Q01DX005 (ip), vehicle: saline with Tween-80
[17] = dose: 100.0 mg/kg/injection, schedule: Q01DX005 (ip), vehicle: saline with Tween-80
[18] = dose: 200.0 mg/kg/injection, schedule: Q01DX005 (ip), vehicle: saline with Tween-80
[19] = dose: 100.0 mg/kg/injection, schedule: Q04DX003 (ip), vehicle: Klucel (hydroxypropylcellulose) (HPC)
[20] = dose: 200.0 mg/kg/injection, schedule: Q04DX003 (ip), vehicle: Klucel (hydroxypropylcellulose) (HPC)

For COc1ccc(C(=O)C(C)Oc2ccccc2OC)cc1OC (configuration not stated), the T/C (dose: 10.0 mg/kg/injection, schedule: Q01DX005 (ip), vehicle: Klucel (hydroxypropylcellulose) (HPC)) was 99 % of control, the T/C (dose: 20.0 mg/kg/injection, schedule: Q01DX005 (ip), vehicle: Klucel (hydroxypropylcellulose) (HPC)) was 100 % of control and the T/C (dose: 40.0 mg/kg/injection, schedule: Q01DX005 (ip), vehicle: Klucel (hydroxypropylcellulose) (HPC)) was 101 % of control.
For C=C(CN(C)C)C(=O)c1ccccc1, the T/C (dose: 0.94 mg/kg/injection, schedule: Q01DX005 (ip), vehicle: saline) was 122 % of control, the T/C (dose: 1.25 mg/kg/injection, schedule: Q01DX005 (ip), vehicle: saline) was 112 % of control and the T/C (dose: 1.88 mg/kg/injection, schedule: Q01DX005 (ip), vehicle: saline) was 112 % of control. The T/C (dose: 2.5 mg/kg/injection, schedule: Q01DX005 (ip), vehicle: saline) was 112 % of control, the T/C (dose: 3.75 mg/kg/injection, schedule: Q01DX005 (ip), vehicle: saline) was 99 % of control and 97 % of control and the T/C (dose: 5.0 mg/kg/injection, schedule: Q01DX005 (ip), vehicle: saline) was 98 % of control and 104 % of control.
For COc1ccc(/C=C/c2ccnc3ccccc23)cc1, the T/C [1] was 100 % of control, the T/C [2] was 104 % of control and the T/C [3] was 108 % of control.
For CC(C)c1ccc(C2NC(=S)NC(=O)C2C#N)cc1 (configuration not stated), the T/C [4] was 101 % of control, the T/C [5] was 100 % of control and the T/C [6] was 98 % of control.
In the case of O=C(Nc1ccc([N+](=O)[O-])cc1)N1CCOCC1, the T/C [2] is reported as 97 % of control, the T/C [3] is reported as 89 % of control and the T/C [7] is reported as 86 % of control and 92 % of control. For the same compound, the T/C [8] was 88 % of control.
For N#CNC(=Nc1ccccc1)[N](C#N)[Sn]([c]1ccccc1)([c]1ccccc1)[c]1ccccc1, the T/C (dose: 1.56 mg/kg/injection, schedule: Q01DX005 (ip), vehicle: Klucel (hydroxypropylcellulose) (HPC)) was 100 % of control, the T/C (dose: 3.12 mg/kg/injection, schedule: Q01DX005 (ip), vehicle: Klucel (hydroxypropylcellulose) (HPC)) was 102 % of control and the T/C (dose: 6.25 mg/kg/injection, schedule: Q01DX005 (ip), vehicle: Klucel (hydroxypropylcellulose) (HPC)) was 103 % of control and 97 % of control.
For Cn1cc(Cc2c[nH]c3ccccc3c2=O)c2ccccc21, the T/C [9] was 107 % of control, the T/C [10] was 99 % of control and the T/C [11] was 97 % of control.
COc1ccc(S(=O)(=O)N/N=C/C(=O)O)cc1 was tested, and the T/C (dose: 6.25 mg/kg/injection, schedule: Q01DX009 (ip), vehicle: other) was 116 % of control, the T/C (dose: 12.5 mg/kg/injection, schedule: Q01DX005 (ip), vehicle: saline with Tween-80) was 118 % of control and the T/C (dose: 25.0 mg/kg/injection, schedule: Q01DX009 (ip), vehicle: other) was 162 % of control. For the same compound, the T/C (dose: 50.0 mg/kg/injection, schedule: Q01DX005 (ip), vehicle: distilled water + Tween-80) was 154 % of control, the T/C (dose: 50.0 mg/kg/injection, schedule: Q01DX009 (ip), vehicle: other) was 158 % of control and 159 % of control and the T/C (dose: 100.0 mg/kg/injection, schedule: Q01DX005 (ip), vehicle: distilled water + Tween-80) was 182 % of control.
In the case of CCOC(=O)CCC#N, the T/C [4] is reported as 99 % of control and 105 % of control, the T/C [5] is reported as 107 % of control and 108 % of control and the T/C [6] is reported as 105 % of control and 106 % of control. The T/C (dose: 400.0 mg/kg/injection, schedule: Q01DX009 (ip), vehicle: saline) was 100 % of control.
With CC(=O)Oc1ccc(OC(C)=O)c2cc3c(cc12)C(=O)C(C)=C(C)C3=O the T/C [12] was 89 % of control, the T/C [13] was 97 % of control and the T/C [14] was 111 % of control.
Cc1cccc(C)c1NC(=O)C(Cl)(Cl)Sc1ccc(Cl)cc1Cl was tested, and the T/C [7] was 100 % of control, the T/C [15] was 104 % of control and the T/C [8] was 109 % of control.
For O=S(=O)(Cl)c1ccccc1 (tested in a mixture with another compound), the T/C [9] was 104 % of control, the T/C [10] was 99 % of control and the T/C [11] was 99 % of control.
In the case of O=c1c2ccccc2n(-c2ccccc2)c2cc(Cl)ccc12, the T/C [12] is reported as 100 % of control, the T/C [13] is reported as 102 % of control and the T/C [14] is reported as 100 % of control.
CNC(C#N)C(O)c1ccccc1 (configuration not stated) was tested, and the T/C (dose: 12.5 mg/kg/injection, schedule: Q01DX009 (ip), vehicle: saline) was 92 % of control, the T/C (dose: 25.0 mg/kg/injection, schedule: Q01DX009 (ip), vehicle: saline) was 92 % of control and the T/C [4] was 93 % of control and 97 % of control.
In the case of CSc1nc(SC)c2cnn(COCCO)c2n1, the T/C [16] is reported as 92 % of control, the T/C [17] is reported as 92 % of control and the T/C [18] is reported as 92 % of control.
In the case of CC(C)COC(=O)NCCCl, the T/C [7] is reported as 100 % of control, the T/C [15] is reported as 97 % of control and the T/C [8] is reported as 97 % of control.
C[C@H]1C[C@H](c2ccccc2)[C@@H](c2ccccc2)C(=O)O1 was tested, and the T/C [19] was 93 % of control, the T/C [20] was 92 % of control and the T/C (dose: 400.0 mg/kg/injection, schedule: Q04DX003 (ip), vehicle: Klucel (hydroxypropylcellulose) (HPC)) was 92 % of control.
For COC(=O)c1ccc(NCC(=N)N)cc1, the T/C (dose: 50.0 mg/kg/injection, schedule: Q01DX001 (ip), vehicle: saline) was 100 % of control, the T/C (dose: 100.0 mg/kg/injection, schedule: Q01DX001 (ip), vehicle: saline) was 100 % of control and the T/C (dose: 200.0 mg/kg/injection, schedule: Q01DX001 (ip), vehicle: saline) was 104 % of control.
With CCN(CC)N=Nc1ccccc1-c1nc(N)c2ccccc2n1 the T/C (dose: 12.5 mg/kg/injection, schedule: Q04DX003 (ip), vehicle: Klucel (hydroxypropylcellulose) (HPC)) was 105 % of control, the T/C (dose: 25.0 mg/kg/injection, schedule: Q04DX003 (ip), vehicle: Klucel (hydroxypropylcellulose) (HPC)) was 102 % of control and 103 % of control and 94 % of control and the T/C (dose: 50.0 mg/kg/injection, schedule: Q04DX003 (ip), vehicle: Klucel (hydroxypropylcellulose) (HPC)) was 98 % of control and 111 % of control and 91 % of control. For the same compound, the T/C [19] was 102 % of control (2×) and 94 % of control and the T/C [20] was 106 % of control and 119 % of control and 86 % of control.
For COC1C(O)C(C)OC(OC2C(Oc3cccc4c(O)c5c(=O)oc6ccc(C)c7c(=O)oc(c34)c5c67)OC(C)C(O)C2O)C1O (configuration not stated), the T/C (dose: 0.5 mg/kg/injection, schedule: Q01DX009 (ip), vehicle: saline with Tween-80) was 108 % of control, the T/C (dose: 4.0 mg/kg/injection, schedule: Q01DX009 (ip), vehicle: saline with Tween-80) was 157 % of control and the T/C [1] was 152 % of control. For the same compound, the T/C (dose: 12.5 mg/kg/injection, schedule: Q01DX001 (sc), vehicle: Klucel (hydroxypropylcellulose) (HPC)) was 100 % of control, the T/C (dose: 12.5 mg/kg/injection, schedule: Q01DX001 (sc), vehicle: other) was 97 % of control and the T/C (dose: 12.5 mg/kg/injection, schedule: Q01DX005 (sc), vehicle: Klucel (hydroxypropylcellulose) (HPC)) was 98 % of control. The T/C (dose: 12.5 mg/kg/injection, schedule: Q01DX005 (sc), vehicle: other) was 101 % of control, the T/C [2] was 164 % of control and the T/C (dose: 25.0 mg/kg/injection, schedule: Q01DX001 (sc), vehicle: Klucel (hydroxypropylcellulose) (HPC)) was 102 % of control. The T/C (dose: 25.0 mg/kg/injection, schedule: Q01DX001 (sc), vehicle: other) was 100 % of control, the T/C (dose: 25.0 mg/kg/injection, schedule: Q01DX005 (sc), vehicle: Klucel (hydroxypropylcellulose) (HPC)) was 97 % of control and the T/C (dose: 25.0 mg/kg/injection, schedule: Q01DX005 (sc), vehicle: other) was 92 % of control. The T/C [3] was 174 % of control, the T/C (dose: 50.0 mg/kg/injection, schedule: Q01DX001 (sc), vehicle: Klucel (hydroxypropylcellulose) (HPC)) was 98 % of control and the T/C (dose: 50.0 mg/kg/injection, schedule: Q01DX001 (sc), vehicle: other) was 109 % of control. For the same compound, the T/C (dose: 50.0 mg/kg/injection, schedule: Q01DX005 (sc), vehicle: Klucel (hydroxypropylcellulose) (HPC)) was 100 % of control, the T/C (dose: 50.0 mg/kg/injection, schedule: Q01DX005 (sc), vehicle: other) was 98 % of control and the T/C [7] was 183 % of control. For the same compound, the T/C [15] was 171 % of control.
CC(C)CC(NC(=O)C(Cc1ccccc1)NC(=O)CNC(=O)C(C)NC(=O)C(N)Cc1ccc(O)cc1)C(=O)O (configuration not stated) was tested, and the T/C [16] was 93 % of control, the T/C [17] was 109 % of control and the T/C [18] was 91 % of control.
In the case of O=C1C=CC(=O)N1c1ccc(I)cc1Cl, the T/C [7] is reported as 106 % of control, the T/C [15] is reported as 104 % of control and the T/C [8] is reported as 96 % of control.
